Laboratory results reported in patent US20260248128A1, “INSECT NEUROPEPTIDE ANALOGUES” (Solasta Bio Limited, priority 2021, published 2026).
Where no end group is shown, it is not given here. [ ]: non-standard residue; d: D form. NMeA = CN[C@@H](C)C(=O)O; Ahx = NCCCCCC(=O)O

Legend:
[1] = system: M. persicae (peach potato/Green Peach Aphid); assay: IRAC leaf dip assay on adult aphids; assay type: in vivo, Myzus persicae; conditions: for Peptide efficacy compared with endogenous CAPA-3: adult aphids and nymphs, scored 72, 96 and 120 hours
Experimental: Peptide efficacy (2×10^−4 M) was assessed on M. persicae (peach potato/Green Peach Aphid) using IRAC leaf dip assays on adult aphids. Peptides were administered on leaves either in DDH2O or Amino Acid Mix (Sadeghi et al., 2010) to increase uptake via feeding. Insecticide treatment was with Spirotetramat, 2×10^−4 M
Data are from 120 hours post-treatment, indicating % adult lethality (left panel); and number of nymphs per sample (right panel) for each of SB-P-1 (endogenous CAPA-3, N =26 (H2O); 15 (AA)), SB-P-14 (CAPA-3 analogue, N=5); SB-P-15 (CAPA-3 analogue, N=10). Peptide application rates are 2×10^−4 M. Note that nymph values for spirotetramat are 0.
Data are for 120 hours, indicating % adult lethality (left panel); and number of nymphs per sample (right panel). Individual data points are shown, N=5. Peptide application rates are 2×10^−4 M.

[2] = system: M. persicae CAPA receptor; assay: activation assay (IP1 assay) for M. persicae CAPA receptor; assay type: cell-based, Myzus persicae; conditions: initial screen, FIG. 7
[3] = system: H. halys CAPA receptor; conditions: data in Ahn et al, 2020; cited from earlier work
[4] = system: Pyrokinin receptor; conditions: Brown Marmorated Stinkbug, H. halys; Ahn et al., 2020; cited from earlier work
[5] = leaf dip, peptide 2×10^−4 M, 120 hours

CCOC(=O)OC1=C(c2cc(C)ccc2C)C(=O)N[C@]12CC[C@@H](OC)CC2 [spirotetramat, Spirotetramat, reference compound]
number of nymphs per sample ([1]; 120 hours post-treatment, 2×10^−4 M): 0

H-SDSKNTALWFGPRL-NH2 [SB-P-1]
activation of M. persicae CAPA receptor [2]: do not activate | activation of H. halys CAPA receptor [3]: does not activate | activation of Pyrokinin receptor [4]: activate

Hy-Ahx-SDSKNT[n-me-A]LWFGPRL-[NH2] ([Ahx]SDSKNT[NMeA]LWFGPRL-NH2; N-terminus assumed; SMILES CC(C)C[C@H](NC(=O)[C@H](CCCNC(=N)N)NC(=O)[C@@H]1CCCN1C(=O)CNC(=O)[C@H](Cc1ccccc1)NC(=O)[C@H](Cc1c[nH]c2ccccc12)NC(=O)[C@H](CC(C)C)NC(=O)[C@H](C)N(C)C(=O)[C@@H](NC(=O)[C@H](CC(N)=O)NC(=O)[C@H](CCCCN)NC(=O)[C@H](CO)NC(=O)[C@H](CC(=O)O)NC(=O)[C@H](CO)NC(=O)CCCCCN)[C@@H](C)O)C(N)=O) [SB-P-14]
Peptide efficacy compared with endogenous CAPA-3 ([1]; leaf dip, peptide 2×10^−4 M): did not perform as well as endogenous CAPA-3

Hy-SDSKNT[n-me-A]LWFGPRL-[nh2] [SB-P-15]
Peptide efficacy compared with endogenous CAPA-3 ([1]; leaf dip, peptide 2×10^−4 M): an improvement on endogenous CAPA-3 efficacy | aphicidal efficacy (adult lethality) [1, 5]: highly effective | nymphicidal efficacy [1, 5]: highly effective | activation of M. persicae CAPA receptor [2]: do not activate
